Experimental data: patent US20240240224A1, “FLUORESCENT D-TYPE AMINO ACID METABOLISM MARKER-BASED METHOD FOR DETECTING ANTIBACTERIAL DRUG SENSITIVITY TEST” (priority 2020, published 2024)
In brackets after ≈: the same amount, converted by molar mass. Blank lines part the entries; values can stand above or below the compound they belong to.

Assays:
E. coli Ec11 [1] = assay: BMD susceptibility test; assay type: cell-based, Escherichia coli; settings: unit assumed
E. coli Ec11 [2] = assay: FaAST (FDAA metabolic labeling); assay type: cell-based, Escherichia coli; settings: unit assumed
Method: (§1) The specific experimental steps are as follows: • 1. Take the colony to be tested that has been cultured overnight on the plate and fully mix it in normal saline to make a uniform bacterial solution. Dilute it into CAMHB medium to make a bacterial solution with OD600=0.05. • 2. Add 45 μl antibiotic solutions to be tested of different concentrations to 96-well plates (see Table 3 for antibiotic concentration gradient settings). • 3. Add 50 μl of bacterial solution prepared in Step 1 to the 96-well plate and mix well. • 4.5 μl of 10 mM Cy5-DAA probe was added to each well (final concentration was 0.15 mM, and its structure was shown in FIG. 1). After mixing, the probe was incubated for 2 hours in the dark. • 5. After dilution with 200 μl PBS solution, the fluorescence intensity of each sample was detected by flow cytometry. The flow detection results are shown in the attached FIG. 4-5, showing the curve of antibiotic concentration gradient and fluorescence intensity, and the MIC (minimum inhibitory concentration) is obtained by referring to this curve.
(§2) Antibiotic resistant strains are shown in bold in the table below.

Ec ATCC 25922 [3] = assay: FaAST (FDAA metabolic labeling); assay type: cell-based, Escherichia coli; settings: unit assumed
Method: as §1, §2

Ec ATCC 25922 [4] = assay: BMD susceptibility test; assay type: cell-based, Escherichia coli; settings: unit assumed
K. pneumoniae Kp6 [5] = assay: BMD susceptibility test; assay type: cell-based, Klebsiella pneumoniae; settings: unit assumed
K. pneumoniae Kp6 [6] = assay: FaAST (FDAA metabolic labeling); assay type: cell-based, Klebsiella pneumoniae; settings: unit assumed
Method: as §1, with “cytometry.” for “cytometry. The flow detection results are shown in the attached FIG. 4-5, showing the curve of antibiotic concentration gradient and fluorescence intensity, and the MIC (minimum inhibitory concentration) is obtained by referring to this curve.”

Ec ATCC 25922 [7] = settings: cited from earlier work
S. aureus ST398 [8] = assay: FDAA metabolic labeling susceptibility test (Cy5-DAA probe, flow cytometry); assay type: cell-based; settings: Staphylococcus aureus; S. aureus ST398; Cy5-DAA probe, 2 hours; read-out: MIC, FDAA
Method: (§3) Take the colony to be tested that has been cultured overnight on the plate and fully mix it in normal saline to make a uniform bacterial solution. Dilute it into Cation-Adjusted Mueller Hinton Broth (CAMHB) culture medium to make a bacterial solution with OD600=0.05. • 2. Add 45 μl antibiotic solutions of different concentrations to 96-well plates (see Table 1 for antibiotic concentration gradient settings). • 3. Add 50 μl of the bacterial solution prepared in step 1 to the 96-well plate and mix well. • 4. Add 5 μl of 10 mM Cy5-DAA probe (final concentration 0.15 mM, see FIG. 1 for its structure) into each well, mix well, and cultivate in dark for 2 hours. • 5. Add 200 μl After PBS solution is diluted, the fluorescence intensity of each sample is detected by flow cytometry. The flow detection results are shown in FIG. 4-5, showing the curve of the change of antibiotic concentration gradient and fluorescence intensity. The MIC (minimum inhibitory concentration) can be obtained by referring to this curve.

S. aureus ST59 [9] = assay: as above; assay type: cell-based; settings: Staphylococcus aureus; S. aureus ST59; Cy5-DAA probe, 2 hours; read-out: MIC, FDAA
Method: as §3

S. aureus ST59 [10] = assay: Vitek 2 drug sensitivity test; assay type: cell-based, Staphylococcus aureus; on Sensibility: key: S: Drug sensitive; R: Drug resistance
S. aureus ST398 [11] = assay: Vitek 2 drug sensitivity test; assay type: cell-based, Staphylococcus aureus; on Sensibility: key: S: Drug sensitive; R: Drug resistance
E. faecium Ef26 [12] = assay: BMD susceptibility test; assay type: cell-based, Enterococcus faecium; settings: unit assumed
E. faecium Ef26 [13] = assay: FaAST (FDAA metabolic labeling method); assay type: cell-based, Enterococcus faecium; settings: unit assumed
Method: as §3
(§4) Bacteria with antibiotic resistance are shown in bold in the following table.

E. faecalis ATCC29212 [14] = assay: BMD susceptibility test; assay type: cell-based, Enterococcus faecalis; settings: unit assumed
E. faecalis ATCC29212 [15] = assay: FaAST (FDAA metabolic labeling method); assay type: cell-based, Enterococcus faecalis; settings: unit assumed
Method: as §3, §4

E. faecalis ATCC29212 [16] = settings: cited from earlier work
[17] = system: alveolar lavage fluid sample 0130, A. baumannii; assay: BMD susceptibility test of patient alveolar lavage fluid; assay type: cell-based, Acinetobacter baumannii; settings: unit assumed
From the text: (§5) The results of antimicrobial susceptibility test of alveolar lavage fluid of seven patients using FDAA and BMD methods are shown in the following table. The drug-resistant bacteria are shown in bold.

[18] = system: alveolar lavage fluid sample 0206, A. baumannii; assay: as above; assay type: cell-based, Acinetobacter baumannii; settings: unit assumed
From the text: as §5

[19] = system: alveolar lavage fluid sample 0219, A. baumannii; assay: as above; assay type: cell-based, Acinetobacter baumannii; settings: unit assumed
From the text: as §5

[20] = system: alveolar lavage fluid sample 0130, A. baumannii; assay: FaAST (FDAA) susceptibility test of patient alveolar lavage fluid; assay type: cell-based, Acinetobacter baumannii; settings: unit assumed
Method: (§6) With reference to the flow chart of the rapid detection method of antimicrobial susceptibility test based on FDAA metabolic markers shown in FIG. 3, FDAA is used for the detection of antimicrobial susceptibility test of alveolar lavage fluid. The specific experimental steps are as follows: • 1. Mix bronchoalveolar lavage fluid (BALF, 10 ml) of patients with hospital acquired pneumonia with cation regulated broth medium (CAMHB, 10 ml) of twice the concentration to prepare the bacterial fluid to be tested. • 2. Add 45 μl antibiotic solutions of different concentrations to the 96-well plate separately (see Table 1 for antibiotic concentration gradient settings). • 3. Add 50 μl of the bacterial solution prepared in step 1 to the 96-well plate and mix well. • 4. Add 5 μl of 10 mM Cy5-DAA probe (final concentration 0.15 mM, see FIG. 1 for its structure) into each well, mix well, and then cultivate in dark for 2 hours. • 5. Add 200 μl PBS solution for dilution, and then use flow cytometry to detect the fluorescence intensity of each sample.
as §5

[21] = system: alveolar lavage fluid sample 0204, A. baumannii; assay: as above; assay type: cell-based, Acinetobacter baumannii; settings: unit assumed
Method: as §6, §5

[22] = system: alveolar lavage fluid sample 0206, A. baumannii; assay: as above; assay type: cell-based, Acinetobacter baumannii; settings: unit assumed
Method: as §6, §5

[23] = system: alveolar lavage fluid sample 0219, A. baumannii; assay: as above; assay type: cell-based, Acinetobacter baumannii; settings: unit assumed
Method: as §6, §5

[24] = system: alveolar lavage fluid sample 0204, A. baumannii; assay: BMD susceptibility test of patient alveolar lavage fluid; assay type: cell-based, Acinetobacter baumannii; settings: unit assumed
[25] = system: alveolar lavage fluid sample 0203, K. pneumoniae; assay: as above; assay type: cell-based, Klebsiella pneumoniae; settings: unit assumed
From the text: as §5

[26] = system: alveolar lavage fluid sample 0226, K. pneumoniae; assay: as above; assay type: cell-based, Klebsiella pneumoniae; settings: unit assumed
From the text: as §5

[27] = system: alveolar lavage fluid sample 0203, K. pneumoniae; assay: FaAST (FDAA) susceptibility test of patient alveolar lavage fluid; assay type: cell-based, Klebsiella pneumoniae; settings: unit assumed
Method: as §6, §5

[28] = system: alveolar lavage fluid sample 0226, K. pneumoniae; assay: as above; assay type: cell-based, Klebsiella pneumoniae; settings: unit assumed
Method: as §6, §5

BMD (MIC) (E. coli Ec11 [1]): 4 µg/mL
FaAST (MIC) (E. coli Ec11 [2]): 8 µg/mL
FaAST (MIC) (Ec ATCC 25922 [3]): 8 µg/mL
BMD (MIC) (Ec ATCC 25922 [4]): 4 µg/mL
BMD (MIC) (K. pneumoniae Kp6 [5]): 2 µg/mL
FaAST (MIC) (K. pneumoniae Kp6 [6]): 4 µg/mL
SMILES: CO/N=C(\C(=O)N[C@@H]1C(=O)N2C(C(=O)O)=C(COC(N)=O)CS[C@H]12)c1ccco1 [Cefuroxime]
CLSI QC range (Ec ATCC 25922 [7]): 2-8

MIC (S. aureus ST398 [8]): 0.5 µg/mL (≈ 0.681 µM)
MIC (S. aureus ST59 [9]): 8 µg/mL (≈ 10.9 µM)
MIC (S. aureus ST59 [10]; Staphylococcus aureus): ≥ 8 µg/mL
MIC (S. aureus ST398 [11]; Staphylococcus aureus): ≤ 0.25 µg/mL
BMD (MIC) (E. faecium Ef26 [12]): ≤ 0.25 µg/mL
FaAST (MIC) (E. faecium Ef26 [13]): ≤ 0.25 µg/mL
BMD (MIC) (E. faecalis ATCC29212 [14]): 2 µg/mL
FaAST (MIC) (E. faecalis ATCC29212 [15]): 2 µg/mL
SMILES: CC[C@H]1OC(=O)[C@H](C)[C@@H](O[C@H]2C[C@@](C)(OC)[C@@H](O)[C@H](C)O2)[C@H](C)[C@@H](O[C@@H]2O[C@H](C)C[C@H](N(C)C)[C@H]2O)[C@](C)(O)C[C@@H](C)C(=O)[C@H](C)[C@@H](O)[C@]1(C)O [Erythromycin, erythromycin]
Sensibility (S. aureus ST59 [10]): R
Sensibility (S. aureus ST398 [11]): S
CLSI QC range (E. faecalis ATCC29212 [16]): 1-4

BMD (MIC) [17]: 64 µg/mL
BMD (MIC) [18]: 32 µg/mL
BMD (MIC) [19]: 32 µg/mL
FaAST (MIC) [20]: 32 µg/mL
FaAST (MIC) [21]: 4 µg/mL
FaAST (MIC) [22]: 32 µg/mL
FaAST (MIC) [23]: 64 µg/mL
BMD (MIC) [24]: 0.5 µg/mL
BMD (MIC) [25]: 0.25 µg/mL
BMD (MIC) [26]: 0.25 µg/mL
FaAST (MIC) [27]: 0.25 µg/mL
FaAST (MIC) [28]: 0.25 µg/mL
SMILES: C[C@@H](O)[C@H]1C(=O)N2C(C(=O)O)=C(S[C@@H]3CN[C@H](C(=O)N(C)C)C3)[C@H](C)[C@H]12 [Meropenem]
